The subject of experiment [1] is EtOH-induced LORR in rats. As to the method: See Kakihana R, et al. (1966) Science 154(756):1574-1575). Briefly, after drug injection, rats were placed in the supine position in a V-shaped support. LORR onset time was taken from the endpoint of drug injection (i.p.). LORR duration ended when the animal was able to flip over three times in 30 s. LORR assays were blindly performed. LORR durations were reported as mean (min)±SEM.
Further LORR assays were conducted as follows.
Additional pre-treatment and post-treatment experiments were also conducted.
See Hunkeler, W., et al. (1981) Nature 290:514-516.

Experiment [2] is described as follows: Plasma [EtOH] assay. In kind it is in vivo, rat. The following applies: two-bottle choice, E+D/water group, end of the fourth week. The method, then:
See Liang (2007). The rat was put into a restraint tube and its tail was warm in about 40° C. The tail vein at the tip of the rail was punched with a sharp blade. Approximately 0.2 ml venous blood was dropped to a capillary blood collection tube containing lithium heparin (Ram Scientific Inc. Yonkers, N.Y.). Blood samples were centrifuged at 2500 rpm for 15 min. The supernatant was collected and stored at −80° C. until assay. The EtOH content of each blood sample was measured in duplicate along with EtOH standards using the alcohol oxidase reaction procedures (GM7 Micro-Stat; Analox Instruments, Lunenberg, Mass.).

The subject of experiment [3] is benzodiazepine site of GABAARs. The experiment in a line: [3H]flunitrazepam binding in rat cortical membrane homogenates. The method, then:
Standard procedures for preparation of rat cortical membranes for radioligand binding assays were conducted as previously described with modifications in speed and number of centrifugation and washes, and buffer compositions. […] Naïve rat cortex was dissected from brain and homogenized in 0.32 M sucrose, 10 mM HEPES buffer (pH 7.4), and centrifuged at 650×g, 4° C. The subsequent supernatant was centrifuged at 150,000×g to collect the desired membrane-containing pellet. The pellet was washed and centrifuged two more times, first using ice-cold water and second using membrane buffer containing 50 mM KH2PO4, 1 mM EDTA, 2 mM benzamidine HCl, 0.5 mM DTT, 0.1 mM benzethonium HCl, 0.01% bacitracin, 0.2 PMSF (pH 7.4), and the resulting pellet was frozen. On the day of binding assay, the pellet was homogenized in assay buffer containing 50 mM KH2PO4, 1 mM EDTA, 200 mM KCl (pH 7.4) and centrifuged, and resuspended in fresh assay buffer to a final protein concentration of 1 mg/ml. […] Specific binding was defined as the total amount bound (zero unlabeled ligand) minus the binding in the presence of 10 μM final concentration flurazepam (Sigma). Data was analyzed with GraphPad Prism 4.0 Software (San Diego, Calif.) to determine IC50 (One-site competition equation) and Hill slope (Sigmoidal Dose-Response equation). Experiments were conducted in triplicate.

Experiment [4] relates to EtOH withdrawal anxiety in rats. The experiment in a line: Elevated plus-maze (EPM) after EtOH withdrawal. In kind it is in vivo, rat. The method, then: 48 hr after injection, rats were sub-divided into 3 groups to measure signs of EtOH withdrawal.
Anxiety and locomotion/ataxia associated with EtOH withdrawal was measured on an elevated plus-maze in EtOH-withdrawn rats (EPM, FIG. 12A). Spent time was measured in minutes. The plus-maze was constructed and the measurements were scored as described previously. See Liang et al. (2004) J Pharmacol Exp Ther 310:1234-1245. Briefly, the maze was elevated 1 m above the floor, and contained four 51 cm-long, 11.5 cm-wide arms arranged at right angles. The closed arms had opaque walls 30 cm high, extending the length of the arm. At the time of the test, each animal was placed in the center of the maze facing an open arm and allowed to explore for a 5-min session. During the session, the animal's behavior (e.g. number of arm entries and time spent in each arm per entry) was recorded on a camcorder

[5] abbreviates: DHM 1 mg/kg i.p. 30 min after EtOH i.p.
The mark [6] stands for this setting: DHM 1 mg/kg i.p. 30 min prior to EtOH 3 g/kg i.p.
Setting [7] is: EtOH+DHM (E+D) group, 48 hr withdrawal.

Molecules are shown by their SMILES. Several values for one entry are separate records, joined by “and”; a condition that tells them apart may be missing. Equal entries are not always repeated. Where two headings read alike, the source gives them in different places.

The IC50 is the midpoint of a concentration-inhibition curve.

`O=C1c2c(O)cc(O)cc2O[C@H](c2cc(O)c(O)c(O)c2)[C@H]1O` [DHM, (2R,3R)-3,5,7-trihydroxy-2-(3,4,5-trihydroxyphenyl)-2,3-dihydrochromen-4-one]: in experiment [1] (setting [5]), the “LORR duration remaining from DHM injection” value is 21 ± 2 min and 19 ± 1.0 min; the “remaining LORR, % of control (E+saline)” value is 41.2±3.8% and 42%. Moreover, the “LORR duration (total)” value in experiment [1] (DHM 1 mg/kg i.p. 30 min after EtOH i.p. (b63 prints 3 mg/kg)) was 49 ± 2 min. Moreover, in experiment [1] (setting [6]), the LORR duration was 8 ± 4 min and 8.2 ± 4.1 min; the “LORR duration, % of control” value is listed as 10.6±5.9 % of control. The “LORR duration, % of control” value in experiment [1] (co-administration DHM 1 mg/kg i.p. with EtOH i.p.) was 1.2±0.6 % of control. This compound also yielded an LORR duration in experiment [1] (co-injection DHM 3 mg/kg and EtOH 3 g/kg i.p.) of 2.7 ± 1.7 min. The “EtOH-induced LORR duration in female rats” value in experiment [1] (female rats, combined treatment DHM 1 mg/kg i.p. with EtOH 3 g/kg i.p.) was “reduction”. Further, the “plasma [EtOH] vs. E/water group” value in experiment [2] is on record as “significantly lower”. In addition, the “concentration at which significant inhibition of [3H]flunitrazepam binding starts” value in experiment [3] was found to be 0.3 µM. The IC50 in experiment [3] ([3H]flunitrazepam 1 nM, rat cortex membranes, read-out: IC50, inhibition of [3H]flunitrazepam binding) turned out to be 4.36 µM. Further, the “binding to GABAARs in [3H]flunitrazepam binding assay” value in experiment [3] (comparative experiments) is “bind GABAARs”. For the same compound, in experiment [4] (DHM group, 48 hr), the “time spent in closed arms” value amounted to 1.52 ± 0.56 min and the “time spent in open arms” value amounted to 2.92 ± 0.70 min. Moreover, in experiment [4] (setting [7]), the “time spent in closed arms” value was determined as 1.88 ± 0.79 min and the “time spent in open arms” value was 2.68 ± 0.77 min.

For the origin of these results see patent US20130053435A1, “Methods of Treating Alcohol Intoxication, Alcohol Use Disorders and Alcohol Abuse Which Comprises the Administration of Dihydromyricetin” (priority 2011, published 2013).
